The source of these data is the supplement of paper PMC10307832.

Holding throughout (test): relative viability (nuclei count vs DMSO), 5 days (fraction); higher = more cells survive
Compound in one experiment: CN(C)C/C=C/C(=O)Nc1cc2c(Nc3ccc(F)c(Cl)c3)ncnc2cc1O[C@H]1CCOC1 [Afatinib]
The procedure, abridged:
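Viability was defined as treated-well nuclei divided by vehicle-well nuclei, with the median taken over replicate plates. Cells from lung cancer lines sat overnight at 37 °C in 1536-well plates, received five √10-spaced library-drug doses by pinning on vehicle-anchored plates, and grew 5 days without medium change before one-step fixation, permeabilisation and Hoechst staining, 4× imaging and MetaXpress nuclear counts. Only plates with control CV under 25% and at least one doubling were kept.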

Compound in the experiment “Afatinib + Navitoclax”: CN(C)C/C=C/C(=O)Nc1cc2c(Nc3ccc(F)c(Cl)c3)ncnc2cc1O[C@H]1CCOC1 [Afatinib] + CC1(C)CCC(c2ccc(Cl)cc2)=C(CN2CCN(c3ccc(C(=O)NS(=O)(=O)c4ccc(N[C@H](CCN5CCOCC5)CSc5ccccc5)c(S(=O)(=O)C(F)(F)F)c4)cc3)CC2)C1 [Navitoclax] (partner 0.5 µM)
In a few lines:
(§1)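 The day after seeding in 1536-well plates, lung cancer cell lines were treated by pin tool with a single drug, or with a fixed anchor-drug dose together with five library-drug doses (not always all listed) in √10 steps. After 5 days, a combined fix-and-stain solution (final 0.05% Triton X-100, 1% formaldehyde, 1 ug/ml Hoechst) was added. Nuclei counted on 4× images gave relative viability as treated counts over vehicle counts, reported as the median of duplicate plates.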

Compound in the experiment “Afatinib + Tozasertib”: CN(C)C/C=C/C(=O)Nc1cc2c(Nc3ccc(F)c(Cl)c3)ncnc2cc1O[C@H]1CCOC1 [Afatinib] + Cc1cc(Nc2cc(N3CCN(C)CC3)nc(Sc3ccc(NC(=O)C4CC4)cc3)n2)n[nH]1 [Tozasertib] (partner 0.1 µM)
The procedure, abridged: as §1

Compound in the experiment “Afatinib + Phenformin”: CN(C)C/C=C/C(=O)Nc1cc2c(Nc3ccc(F)c(Cl)c3)ncnc2cc1O[C@H]1CCOC1 [Afatinib] + N=C(N)NC(=N)NCCc1ccccc1 [Phenformin] (partner 250 µM)
The procedure, abridged: as §1

In the case of LOU-NH91, the relative viability was found to be 0.784 with Afatinib (0.005 µM); 0.813 with Afatinib (0.01581 µM); 0.887 in the experiment with Afatinib (0.05 µM); 0.73 in the experiment with Afatinib (0.1581 µM); 0.791 with Afatinib (0.5 µM); 0.402 with Afatinib + Navitoclax (first compound 0.005 µM). Besides, the relative viability in the experiment with Afatinib + Navitoclax (first compound 0.01581 µM) turned out to be 0.39; with Afatinib + Navitoclax (first compound 0.05 µM) it was 0.441; in the experiment with Afatinib + Navitoclax (first compound 0.1581 µM) it was 0.348; in the experiment with Afatinib + Navitoclax (first compound 0.5 µM) it was 0.402; with Afatinib + Tozasertib (first compound 0.005 µM), 0.475; with Afatinib + Tozasertib (first compound 0.01581 µM), 0.444. Moreover, the relative viability with Afatinib + Tozasertib (first compound 0.05 µM) amounted to 0.527; in the experiment with Afatinib + Tozasertib (first compound 0.1581 µM), 0.51; in the experiment with Afatinib + Tozasertib (first compound 0.5 µM) it was 0.479; with Afatinib + Phenformin (first compound 0.005 µM) it was 0.342; in the experiment with Afatinib + Phenformin (first compound 0.01581 µM), 0.45; with Afatinib + Phenformin (first compound 0.05 µM) it was 0.477. Moreover, the relative viability was determined as 0.394 with Afatinib + Phenformin (first compound 0.1581 µM) and 0.548 in the experiment with Afatinib + Phenformin (first compound 0.5 µM).

On to LU99A, for which the relative viability is 1.15 with Afatinib (0.005 µM); 0.984 in the experiment with Afatinib (0.01581 µM); 0.94 with Afatinib (0.05 µM); 0.924 with Afatinib (0.1581 µM); 0.975 with Afatinib (0.5 µM); 0.859 with Afatinib + Navitoclax (first compound 0.005 µM). Also, the relative viability with Afatinib + Navitoclax (first compound 0.01581 µM) was determined as 0.706; with Afatinib + Navitoclax (first compound 0.05 µM), 0.797; with Afatinib + Navitoclax (first compound 0.1581 µM), 0.793; with Afatinib + Navitoclax (first compound 0.5 µM), 0.883; in the experiment with Afatinib + Tozasertib (first compound 0.005 µM), 0.275; in the experiment with Afatinib + Tozasertib (first compound 0.01581 µM), 0.273. Also, the relative viability with Afatinib + Tozasertib (first compound 0.05 µM) worked out at 0.256; with Afatinib + Tozasertib (first compound 0.1581 µM) it was 0.254; in the experiment with Afatinib + Tozasertib (first compound 0.5 µM), 0.231; with Afatinib + Phenformin (first compound 0.005 µM), 0.837; in the experiment with Afatinib + Phenformin (first compound 0.01581 µM), 0.851; with Afatinib + Phenformin (first compound 0.05 µM), 0.891. The relative viability stood at 0.944 in the experiment with Afatinib + Phenformin (first compound 0.1581 µM) and 0.828 in the experiment with Afatinib + Phenformin (first compound 0.5 µM).

Consider LXF-289, for which the relative viability worked out at 1.01 in the experiment with Afatinib (0.005 µM); 0.97 with Afatinib (0.01581 µM); 0.947 in the experiment with Afatinib (0.05 µM); 0.94 with Afatinib (0.1581 µM); 0.94 in the experiment with Afatinib (0.5 µM); 0.975 with Afatinib + Navitoclax (first compound 0.005 µM). Moreover, the relative viability was 0.885 with Afatinib + Navitoclax (first compound 0.01581 µM); 0.91 in the experiment with Afatinib + Navitoclax (first compound 0.05 µM); 0.927 in the experiment with Afatinib + Navitoclax (first compound 0.1581 µM); 0.963 with Afatinib + Navitoclax (first compound 0.5 µM); 0.146 with Afatinib + Tozasertib (first compound 0.005 µM); 0.146 with Afatinib + Tozasertib (first compound 0.01581 µM). For the same cell line, the relative viability in the experiment with Afatinib + Tozasertib (first compound 0.05 µM) came out at 0.2; with Afatinib + Tozasertib (first compound 0.1581 µM), 0.152; with Afatinib + Tozasertib (first compound 0.5 µM), 0.214; in the experiment with Afatinib + Phenformin (first compound 0.005 µM) it was 0.492; with Afatinib + Phenformin (first compound 0.01581 µM), 0.521; in the experiment with Afatinib + Phenformin (first compound 0.05 µM), 0.534. The results for the relative viability with Afatinib + Phenformin (first compound 0.1581 µM) and with Afatinib + Phenformin (first compound 0.5 µM) were 0.468 and 0.471, respectively.

NCI-H23: the relative viability with Afatinib (0.005 µM) was determined as 1.1; in the experiment with Afatinib (0.01581 µM), 0.976; with Afatinib (0.05 µM), 0.922; with Afatinib (0.1581 µM) it was 0.97; with Afatinib (0.5 µM) it was 0.792; with Afatinib + Navitoclax (first compound 0.005 µM), 0.973. Moreover, the relative viability with Afatinib + Navitoclax (first compound 0.01581 µM) was found to be 0.843; with Afatinib + Navitoclax (first compound 0.05 µM) it was 0.881; with Afatinib + Navitoclax (first compound 0.1581 µM), 0.735; with Afatinib + Navitoclax (first compound 0.5 µM), 0.814; with Afatinib + Tozasertib (first compound 0.005 µM), 0.356; in the experiment with Afatinib + Tozasertib (first compound 0.01581 µM), 0.366. Also, the relative viability came to 0.321 with Afatinib + Tozasertib (first compound 0.05 µM); 0.391 with Afatinib + Tozasertib (first compound 0.1581 µM); 0.315 with Afatinib + Tozasertib (first compound 0.5 µM); 0.847 with Afatinib + Phenformin (first compound 0.005 µM); 0.825 with Afatinib + Phenformin (first compound 0.01581 µM); 0.808 with Afatinib + Phenformin (first compound 0.05 µM). Further, the relative viability with Afatinib + Phenformin (first compound 0.1581 µM) was 0.772; with Afatinib + Phenformin (first compound 0.5 µM), 0.718.

With NCI-H322M, the relative viability with Afatinib (0.005 µM) was found to be 0.705; in the experiment with Afatinib (0.01581 µM) it was 0.495; in the experiment with Afatinib (0.05 µM), 0.533; with Afatinib (0.1581 µM) it was 0.545; with Afatinib (0.5 µM), 0.419; in the experiment with Afatinib + Navitoclax (first compound 0.005 µM) it was 1.28. The relative viability with Afatinib + Navitoclax (first compound 0.01581 µM) stood at 0.864; with Afatinib + Navitoclax (first compound 0.05 µM), 0.586; with Afatinib + Navitoclax (first compound 0.1581 µM) it was 0.405; in the experiment with Afatinib + Navitoclax (first compound 0.5 µM), 0.371; with Afatinib + Tozasertib (first compound 0.005 µM) it was 0.386; with Afatinib + Tozasertib (first compound 0.01581 µM), 0.329. In addition, the relative viability in the experiment with Afatinib + Tozasertib (first compound 0.05 µM) was 0.307; with Afatinib + Tozasertib (first compound 0.1581 µM), 0.304; in the experiment with Afatinib + Tozasertib (first compound 0.5 µM), 0.313; in the experiment with Afatinib + Phenformin (first compound 0.005 µM) it was 0.636; in the experiment with Afatinib + Phenformin (first compound 0.01581 µM) it was 0.433; with Afatinib + Phenformin (first compound 0.05 µM), 0.535. Moreover, the relative viability with Afatinib + Phenformin (first compound 0.1581 µM) amounted to 0.463; in the experiment with Afatinib + Phenformin (first compound 0.5 µM), 0.446.

Consider NCI-H441, for which the relative viability with Afatinib (0.005 µM) came to 1.08; with Afatinib (0.01581 µM), 0.997; with Afatinib (0.05 µM), 1.18; with Afatinib (0.1581 µM) it was 0.982; with Afatinib (0.5 µM), 0.948; with Afatinib + Navitoclax (first compound 0.005 µM) it was 0.904. For the same cell line, the relative viability with Afatinib + Navitoclax (first compound 0.01581 µM) came out at 0.516; with Afatinib + Navitoclax (first compound 0.05 µM) it was 0.446; with Afatinib + Navitoclax (first compound 0.1581 µM), 0.399; in the experiment with Afatinib + Navitoclax (first compound 0.5 µM), 0.294; with Afatinib + Tozasertib (first compound 0.005 µM), 0.757; in the experiment with Afatinib + Tozasertib (first compound 0.01581 µM) it was 0.788. In addition, the relative viability with Afatinib + Tozasertib (first compound 0.05 µM) was 0.67; in the experiment with Afatinib + Tozasertib (first compound 0.1581 µM), 0.532; in the experiment with Afatinib + Tozasertib (first compound 0.5 µM) it was 0.494; in the experiment with Afatinib + Phenformin (first compound 0.005 µM) it was 0.92; with Afatinib + Phenformin (first compound 0.01581 µM), 0.748; with Afatinib + Phenformin (first compound 0.05 µM), 0.916. Besides, the relative viability with Afatinib + Phenformin (first compound 0.1581 µM) is 0.736; in the experiment with Afatinib + Phenformin (first compound 0.5 µM), 0.797.

Take NCI-H460: the relative viability is 1.01 with Afatinib (0.005 µM); 1 with Afatinib (0.01581 µM); 0.996 with Afatinib (0.05 µM); 1.01 with Afatinib (0.1581 µM); 1 with Afatinib (0.5 µM); 1.21 in the experiment with Afatinib + Navitoclax (first compound 0.005 µM). Besides, the relative viability in the experiment with Afatinib + Navitoclax (first compound 0.01581 µM) turned out to be 1.06; with Afatinib + Navitoclax (first compound 0.05 µM), 1.14; with Afatinib + Navitoclax (first compound 0.1581 µM) it was 1.18; with Afatinib + Navitoclax (first compound 0.5 µM), 1.11; with Afatinib + Tozasertib (first compound 0.005 µM), 0.487; in the experiment with Afatinib + Tozasertib (first compound 0.01581 µM), 0.511. For the same cell line, the relative viability with Afatinib + Tozasertib (first compound 0.05 µM) came out at 0.407; in the experiment with Afatinib + Tozasertib (first compound 0.1581 µM) it was 0.269; in the experiment with Afatinib + Tozasertib (first compound 0.5 µM), 0.395; in the experiment with Afatinib + Phenformin (first compound 0.005 µM) it was 0.549; with Afatinib + Phenformin (first compound 0.01581 µM) it was 0.517; in the experiment with Afatinib + Phenformin (first compound 0.05 µM), 0.536. The relative viability in the experiment with Afatinib + Phenformin (first compound 0.1581 µM) stood at 0.558; with Afatinib + Phenformin (first compound 0.5 µM) it was 0.498.
